# Data taken from patent US20140187587A1, “SYNERGISTIC FUNGICIDAL MIXTURES FOR FUNGAL CONTROL IN CEREALS” (Dow Agrosciences LLC, priority 2012, published 2014).
# Legend:
# [1] = tested on: Septoria tritici (SEPTTR); assay: 1-day protectant (1DP) test of fungicide mixtures vs. leaf blotch of wheat; assay type: in vivo, Mycosphaerella graminicola; anamorph: Septoria tritici; details: single active, wheat (Yuma) plants
# Protocol: (§1) For the mixture studies with the compound of Formula I: Treatments consisted of fungicides, including the compound of Formula I and fluxapyroxad. Technical grades of materials were dissolved in acetone to make stock solutions, which were then used to perform 4-fold dilutions in acetone for each individual fungicide component or for the two-way mixture. Desired fungicide rates were obtained after mixing dilutions with 9 volumes of water containing 110 parts per million (ppm) Triton X-100. The fungicide solutions (20 milliliters (mL)) were applied to 12 pots of plants using an automated booth sprayer, which utilized two 6218-1/4 JAUPM spray nozzles operating at 20 pounds per square inch (psi) set at opposing angles to cover both leaf surfaces. All sprayed plants were allowed to air dry prior to further handling. Control plants were sprayed in the same manner with a solvent blank.
# Evaluation of Curative and Protectant Activity of Fungicide Mixtures vs. Leaf Blotch of Wheat (Mycosphaerella graminicola; Anamorph: Septoria tritici; Bayer Code: SEPTTR).
# Wheat plants (variety Yuma) were grown from seed in a greenhouse in plastic pots with a surface area of 27.5 square centimeters (cm^2) containing 50% mineral soil/50% soil-less Metro mix, with 8-12 seedlings per pot. The plants were utilized for testing when the first leaf was fully emerged, which typically occurred 7-8 days after planting. Test plants were inoculated with an aqueous spore suspension of Septoria tritici either (a) 3 days prior to fungicide treatments (3-day curative test, 3DC) or (b) 1 day after fungicide treatments (1-day protectant test, 1DP). After inoculation the plants were placed in a dew room from 1-3 days to allow for infection to occur. The plants were then placed in the greenhouse for symptom development to occur, which in the case of SEPTTR typically required 25-30 days.
# (§2) When disease severity reached 50-100% on the control plants, infection levels were assessed on treated plants visually and scored on a scale of 0 to 100 percent. The percentage of disease control was then calculated using the ratio of disease on treated plants relative to control plants.
# (§3) The Colby equation was used to determine the fungicidal effects expected from the mixtures. (See Colby, S. R. Calculation of the synergistic and antagonistic response of herbicide combinations. Weeds 1967, 15, 20-22.)
# (§4) The following equation was used to calculate the expected activity of mixtures containing two active ingredients, A and B:
# (§5) A=observed efficacy of active component A at the same concentration as used in the mixture;
# (§6) B=observed efficacy of active component B at the same concentration as used in the mixture.
# [2] = tested on: Puccinia recondita (PUCCRT); assay: 3-day curative (3DC) test of fungicide mixtures vs. wheat brown rust; assay type: in vivo; details: single active, wheat (Yuma) plants
# Protocol: as §1
# Evaluation of Curative Activity of Fungicide Mixtures vs. Wheat Brown Rust (Puccinia recondita; Bayer Code: PUCCRT).
# Yuma wheat seedlings were grown as described above and inoculated with an aqueous spore suspension of Puccinia recondita 3 days prior to fungicide treatment (3DC). After inoculation, plants were placed in a dew room for 1 day to allow for infection to occur. The plants were then placed in the greenhouse for symptom development to occur, which in the case of PUCCRT typically required 7-10 days.
# as §2, §3, §4, §5, §6
SMILES,"% DC Obs (percent disease control observed), SEPTTR 1DP ([1]; application rate 0.1 ppm)","% DC Obs (percent disease control observed), SEPTTR 1DP ([1]; application rate 0.39 ppm)","% DC Obs (percent disease control observed), SEPTTR 1DP ([1]; application rate 1.56 ppm)","% DC Obs (percent disease control observed), SEPTTR 1DP ([1]; application rate 6.25 ppm)","% DC Obs (percent disease control observed), PUCCRT 3DC ([2]; application rate 0.1 ppm)","% DC Obs (percent disease control observed), PUCCRT 3DC ([2]; application rate 0.39 ppm)","% DC Obs (percent disease control observed), PUCCRT 3DC ([2]; application rate 1.56 ppm)","% DC Obs (percent disease control observed), PUCCRT 3DC ([2]; application rate 6.25 ppm)"
"COc1ccnc(C(=O)N[C@H]2COC(=O)[C@H](Cc3ccccc3)[C@@H](OC(=O)C(C)C)[C@H](C)OC2=O)c1OCOC(=O)C(C)C [Compound I, (3S,6S,7R,8R)-8-benzyl-3-(3-((isobutyryloxy)methoxy)-4-methoxypicolinamido)-6-methyl-4,9-dioxo-1,5-dioxonan-7-yl isobutyrate]",0%,0%,2%,93%,2%,0%,12%,98%
"Cn1cc(C(=O)Nc2ccccc2-c2cc(F)c(F)c(F)c2)c(C(F)F)n1 [Fluxapyroxad, 3-(difluoromethyl)-1-methyl-N-(3′,4′,5′-trifluorobiphenyl-2-yl)pyrazole-4-carboxamide]",0%,0%,0%,94%,0%,0%,86%,100%
